Experimental data: US20160120832A1, “LIPID SCAVENGING IN RAS CANCERS” (MEMORIAL SLOAN KETTERING CANCER CENTER, priority 2013, published 2016)
“Also recorded” adds a separate entry of the source.

Key:
A549 lung cancer cells = experiment: Cell growth with SCD1 inhibitor (xCELLigence real-time proliferation / culture dishes); type: cell-based, human
Description: (§1) Cell lines were from ATCC with the following exceptions: the immortalized Baby Mouse Kidney (iBMK) cell lines were derived from primary kidney epithelial cells from Bax^−/−/Bak^−/− mice, immortalized by E1A and dominant-negative p53 expression, and transfected with control vector, human oncogenic H-Ras^V12G, or myrAKT (31); and the Human Pancreatic Nestin Expressing (HPNE) cells (a generous gift of A. Maitra) were developed from human pancreatic duct by transduction with a retroviral expression vector (pBABEpuro) containing the hTERT gene and transfected with control vector or human oncogenic K-Ras^G12D. Cell lines were routinely passaged in Dulbecco's Modified Eagle Medium (DMEM, Mediatech) with 25 mM glucose and 4 mM glutamine and supplemented with 10% Fetal Bovine Serum (HyClone), 25 IU/ml penicillin, and 25 μg/ml streptomycin (MP Biomedicals) and split at 80% confluence. Metabolic experiments were performed in 6 cm culture dishes with 3 ml of DMEM containing 10% dialyzed serum (DFBS, HyClone). For isotope labeling, glucose and glutamine were replaced with their U-^13C-labeled forms (Cambridge Isotope Labs). Hypoxia experiments were performed in a hypoxic glove box (0.5% or 1% O2 as indicated, 5% CO2 and 94-94.5% N2, 37° C.) (Coy Laboratory Products). Cells and media were equilibrated in low oxygen overnight before experiment initiation. CAY10566 was from Cayman Chemical. Lipid supplements were from Avanti Polar Lipids. LPC(18:1) and LPC(18:0) were dissolved in phosphate buffered saline (PBS); MG(18:1) in methanol; and PC(16:0-18:1) in 1:9 chloroform:methanol. Organic solvents were <0.1% v/v in the medium.
(§2) Cell proliferation was determined with either Packed Cell Volume tubes (PCV, Techno Plastic Products AG) or with the xCELLigence system (Roche). Animal studies were performed following the guidelines for proper and humane use of animals in research under an IACUC-approved protocol. […] Xenograft tumors were measured biweekly and tumor volume calculated as volume=(length×width^2×π/6).

SCD1 [1] = biological target: T1, SCD1 (Mus musculus, UniProt P13516); experiment: C18:1 labeling from U-13C-glucose and U-13C-glutamine under SCD1 inhibition, iBMK cells; type: cell-based; details: 200 nM CAY10566, iBMK-H-Ras^V12G and iBMK-myrAkt cells, 48 h
T1 construct: endogenous in cells; host or cells: iBMK cells transfected with human H-Ras V12G or myrAkt (SCD1 itself not transfected)
T1 sequence (P13516 1-355): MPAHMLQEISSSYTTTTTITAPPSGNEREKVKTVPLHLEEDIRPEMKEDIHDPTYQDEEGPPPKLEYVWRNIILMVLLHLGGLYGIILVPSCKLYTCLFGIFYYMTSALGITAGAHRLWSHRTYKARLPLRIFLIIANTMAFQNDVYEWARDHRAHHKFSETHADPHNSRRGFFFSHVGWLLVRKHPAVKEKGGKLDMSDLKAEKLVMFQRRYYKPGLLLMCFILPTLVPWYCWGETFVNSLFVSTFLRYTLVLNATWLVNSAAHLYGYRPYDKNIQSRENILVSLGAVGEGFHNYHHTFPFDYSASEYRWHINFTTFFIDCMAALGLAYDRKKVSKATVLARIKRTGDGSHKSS
Description: as §1, with “Lipid supplements were from Avanti Polar Lipids. LPC(18:1) and LPC(18:0) were dissolved in phosphate buffered saline (PBS); MG(18:1) in methanol; and PC(16:0-18:1) in 1:9 chloroform:methanol. Organic solvents were <0.1% v/v in the medium.” left out

iBMK-H-Ras^V12G cells [2] = experiment: Cell growth with SCD1 inhibitor; type: cell-based, mouse; details: 10% serum, for 3 population doublings
Description: as §1, with “Hypoxia experiments were performed in a hypoxic glove box (0.5% or 1% O2 as indicated, 5% CO2 and 94-94.5% N2, 37° C.) (Coy Laboratory Products). Cells and media were equilibrated in low oxygen overnight before experiment initiation. CAY10566 was from Cayman Chemical. Lipid supplements were from Avanti Polar Lipids. LPC(18:1) and LPC(18:0) were dissolved in phosphate buffered saline (PBS); MG(18:1) in methanol; and PC(16:0-18:1) in 1:9 chloroform:methanol. Organic solvents were <0.1% v/v in the medium.” left out
(§3) Cell proliferation was determined with either Packed Cell Volume tubes (PCV, Techno Plastic Products AG) or with the xCELLigence system (Roche). […] Xenograft tumors were measured biweekly and tumor volume calculated as volume=(length×width^2×π/6).

iBMK-myrAkt cells [3] = experiment: Cell growth with SCD1 inhibitor; type: cell-based, mouse; details: 10% serum
Description: as §1, with “Hypoxia experiments were performed in a hypoxic glove box (0.5% or 1% O2 as indicated, 5% CO2 and 94-94.5% N2, 37° C.) (Coy Laboratory Products). Cells and media were equilibrated in low oxygen overnight before experiment initiation. CAY10566 was from Cayman Chemical. Lipid supplements were from Avanti Polar Lipids. LPC(18:1) and LPC(18:0) were dissolved in phosphate buffered saline (PBS); MG(18:1) in methanol; and PC(16:0-18:1) in 1:9 chloroform:methanol. Organic solvents were <0.1% v/v in the medium.” left out
as §3

iBMK-myrAkt tumors = experiment: Allograft tumor growth in athymic nude mice; type: in vivo, mouse; details: Akt-driven tumors, 2.5 mg/kg CAY10566 p.o. BID, day 13 or 14 post therapy
Procedure: (§4) Cell proliferation was determined with either Packed Cell Volume tubes (PCV, Techno Plastic Products AG) or with the xCELLigence system (Roche). Animal studies were performed following the guidelines for proper and humane use of animals in research under an IACUC-approved protocol. To generate allografts, 1×10^7 iBMK cells were implanted in matrigel (BD Biosciences) into nu/nu athymic female mice. After establishment of palpable tumors, mice were randomized to receive 2.5 mg/kg BID CAY10566 p.o. in 0.5% methylcellulose or vehicle control. Xenograft tumors were measured biweekly and tumor volume calculated as volume=(length×width^2×π/6).

iBMK-H-Ras^V12G tumors = experiment: Allograft tumor growth in athymic nude mice; type: in vivo, mouse; details: Ras-driven tumors, 2.5 mg/kg CAY10566 p.o. BID, day 13 or 14 post therapy
Procedure: as §4

SCD1 [4] = biological target: T2, SCD1 (Homo sapiens, UniProt O00767); experiment: C18:1 labeling from U-13C-glucose and U-13C-glutamine under SCD1 inhibition, A549 cells; type: cell-based; details: 200 nM CAY10566, A549 cells
T2 construct: endogenous in cells; host or cells: A549 lung cancer cells (ATCC)
T2 sequence (O00767 1-359): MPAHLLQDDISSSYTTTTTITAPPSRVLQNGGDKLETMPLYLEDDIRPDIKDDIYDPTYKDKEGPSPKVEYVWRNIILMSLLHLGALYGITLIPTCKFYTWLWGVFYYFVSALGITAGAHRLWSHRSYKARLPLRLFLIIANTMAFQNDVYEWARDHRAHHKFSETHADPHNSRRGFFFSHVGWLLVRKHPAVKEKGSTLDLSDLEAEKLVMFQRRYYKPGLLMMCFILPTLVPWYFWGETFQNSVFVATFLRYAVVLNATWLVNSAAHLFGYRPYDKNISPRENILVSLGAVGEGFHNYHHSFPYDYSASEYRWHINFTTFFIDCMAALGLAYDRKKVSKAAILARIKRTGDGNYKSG
Description: as §1, with “Lipid supplements were from Avanti Polar Lipids. LPC(18:1) and LPC(18:0) were dissolved in phosphate buffered saline (PBS); MG(18:1) in methanol; and PC(16:0-18:1) in 1:9 chloroform:methanol. Organic solvents were <0.1% v/v in the medium.” left out

iBMK-H-Ras^V12G cells [5] = experiment: Packed cell volume with SCD1 inhibitor plus supplemented lipids; type: cell-based, mouse; details: 200 nM SCDi (CAY10566), 20 μM lipid, 72 h
Description: as §1, §2

iBMK-myrAkt cells [6] = experiment: as above; type: cell-based, mouse; details: 200 nM SCDi (CAY10566), 20 μM lipid, 72 h
Description: as §1, §2

iBMK cells = experiment: Lipid composition and C18:1 import after LPC(18:1) supplementation; type: cell-based, mouse; details: 20 μM LPC(18:1)
Description: as §1, with “Lipid supplements were from Avanti Polar Lipids. LPC(18:1) and LPC(18:0) were dissolved in phosphate buffered saline (PBS); MG(18:1) in methanol; and PC(16:0-18:1) in 1:9 chloroform:methanol. Organic solvents were <0.1% v/v in the medium.” left out

cells = experiment: Rescue of cells from SCD1 inhibition (discussion summary); type: cell-based; details: cell line not stated
A549 cells = experiment: Packed cell volume with SCD1 inhibitor plus supplemented lipids; type: cell-based, human; details: 200 nM SCDi (CAY10566), 20 μM lipid, 72 h
Description: as §1, with “Hypoxia experiments were performed in a hypoxic glove box (0.5% or 1% O2 as indicated, 5% CO2 and 94-94.5% N2, 37° C.) (Coy Laboratory Products). Cells and media were equilibrated in low oxygen overnight before experiment initiation. CAY10566 was from Cayman Chemical. Lipid supplements were from Avanti Polar Lipids. LPC(18:1) and LPC(18:0) were dissolved in phosphate buffered saline (PBS); MG(18:1) in methanol; and PC(16:0-18:1) in 1:9 chloroform:methanol. Organic solvents were <0.1% v/v in the medium.” left out
as §3

Row | Compound | cell growth in real-time cell proliferation assay (A549 lung cancer cells; 200 nM CAY10566, 10% serum) | cell growth in standard cell culture conditions (A549 lung cancer cells; 200 nM CAY10566, first 48 h of growth) | cell growth, sensitivity to SCD1 inhibition (A549 lung cancer cells; SCD1 inhibitor, 2% serum) | C18:1 labeling / SCD1 block (SCD1 [1]) | cell growth (iBMK-H-Ras^V12G cells [2]) | cell growth (iBMK-myrAkt cells [3]) | mean tumor volume relative to untreated tumors (iBMK-myrAkt tumors) | mean tumor volume relative to untreated tumors (iBMK-H-Ras^V12G tumors) | C18:1 labeling from U-13C-glucose and U-13C-glutamine (SCD1 [4]) | proliferation / cell growth during SCD1 inhibition with supplemented lipid (iBMK-H-Ras^V12G cells [5]) | proliferation during SCD1 inhibition with supplemented lipid (iBMK-myrAkt cells [6]) | desaturation index (C18:1/C18:0) (iBMK cells; 72 h, iBMK-H-Ras^V12G cells) | fraction of C18:1 derived from import (iBMK cells; both iBMK-H-Ras^V12G and iBMK-myrAkt cells) | rescue of cells from SCD1 inhibition (cells) | proliferation during SCD1 inhibition with supplemented lipid (A549 cells)
1 | Cc1nnc(-c2ccc(N3CCC(Oc4cc(F)ccc4Cl)CC3)nn2)o1 [CAY10566] | did not impair cell growth | did not impair cell growth | sensitive | fully blocked; also recorded: sufficient to fully block C18:1 labeling | grew almost normally | severely impaired | 0.51+/−0.04 | 0.67+/−0.05 | completely blocked; also recorded: blocks C18:1 labeling | – | – | – | – | – | –
2 | CCCCCCCC/C=C\CCCCCCCC(=O)OC[C@@H](O)COP(=O)([O-])OCC[N+](C)(C)C [LPC(18:1), oleoyl lysophosphatidylcholine] | – | – | – | – | – | – | – | – | – | fully restored proliferation | only partially | increased significantly and selectively | increasing | rescues cells from SCD1 inhibition | complete rescue
3 | oleolyl-monoacylglycerol [MG(18:1)] | – | – | – | – | – | – | – | – | – | restored cell proliferation | – | – | – | – | –
